Assay results: BindingDB's records for doi:10.7270/Q2VT1QHF (Vanderbilt Screening Center For Gpcrs, Ion Channels and …, 2010)

Biological target: Metabotropic glutamate receptor 4 (Homo sapiens, UniProt Q14833)
Experiment: PubChem AID 2197

Chain of Metabotropic glutamate receptor 4 (Q14833 whole entry): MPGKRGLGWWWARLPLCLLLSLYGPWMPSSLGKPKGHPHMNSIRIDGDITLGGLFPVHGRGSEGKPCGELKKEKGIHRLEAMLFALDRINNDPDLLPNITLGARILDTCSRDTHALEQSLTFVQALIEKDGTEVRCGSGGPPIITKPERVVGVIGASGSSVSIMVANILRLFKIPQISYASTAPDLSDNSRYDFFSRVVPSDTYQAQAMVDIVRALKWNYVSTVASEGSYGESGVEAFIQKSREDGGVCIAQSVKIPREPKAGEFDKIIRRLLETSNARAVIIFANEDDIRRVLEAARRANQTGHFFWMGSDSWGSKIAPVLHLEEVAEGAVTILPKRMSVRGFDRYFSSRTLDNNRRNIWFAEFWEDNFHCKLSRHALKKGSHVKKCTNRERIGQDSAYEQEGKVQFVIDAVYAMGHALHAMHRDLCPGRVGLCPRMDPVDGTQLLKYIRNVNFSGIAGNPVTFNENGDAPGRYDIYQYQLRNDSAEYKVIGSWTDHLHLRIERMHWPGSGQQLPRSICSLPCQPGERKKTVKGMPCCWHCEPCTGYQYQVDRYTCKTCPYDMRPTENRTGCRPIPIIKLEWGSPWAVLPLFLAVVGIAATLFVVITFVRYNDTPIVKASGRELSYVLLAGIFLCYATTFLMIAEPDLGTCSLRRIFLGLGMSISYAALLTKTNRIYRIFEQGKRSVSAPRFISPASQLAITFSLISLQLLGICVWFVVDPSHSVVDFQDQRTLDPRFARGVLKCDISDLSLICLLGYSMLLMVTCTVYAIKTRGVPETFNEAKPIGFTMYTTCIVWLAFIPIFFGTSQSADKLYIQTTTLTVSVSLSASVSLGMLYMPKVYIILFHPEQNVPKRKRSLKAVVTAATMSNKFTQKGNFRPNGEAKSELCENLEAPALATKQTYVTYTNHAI

Row | SMILES | EC50 [µM]
1 | O=C(Nc1ccc(-n2c(O)ccc2O)c(Cl)c1)c1ccccn1 [N-[3-chloro-4-(2,5-dioxopyrrolidin-1-yl)phenyl]pyridine-2-carboxamide] | 5.96
2 | O=C(Nc1ccc(-n2c(O)c3c(c2O)[C@H]2CC[C@@H]3O2)c(Cl)c1)c1ccccn1 [VU0405235-1] | 1.44
